Reference: PubChem BioAssay AID624142 (National Center for Advancing Translational Sciences (NCATS), 2012)

System: human liver microsomes, half-life, LC-MS/MS
Test: qHTS Assay to Find Inhibitors of T. brucei phosphofructokinase: Human Liver Microsome Stability
Conditions: at 1 µM; stronger effect = higher value

half-life: 5.5 h
SMILES: O=C(Cc1ccc(Cl)c(Cl)c1)Nc1ccc(S(=O)(=O)Nc2ccon2)cc1
